Test results published in patent publication US20220242870A1, “HETEROCYCLE-FUSED PYRIMIDINE DERIVATIVE AND USE THEREOF” (VORONOI Inc., priority 2019, published 2022).

Assays:
CDK6 cyclin D1 = target: T1, CDK6 cyclin D1 (Homo sapiens, UniProt Q00534); experiment: CDK6 enzyme inhibitory ability (Reaction Biology); assay type: biochemical; conditions: measured in Reaction Biology (USA)
T1 construct: purchased Reaction Biology (USA), contract assay
Procedure: (§1) In order to evaluate the CDK4 and CDK6 enzyme inhibitory activities of the example compounds according to the present invention, IC5O (nM) was measured for the CDK4 cyclin D1 and CDK6 cyclin D1 enzymes in Reaction Biology (USA), and the results were shown in Table 3 below.

CDK4-cyclinD1 [1] = target: T2, CDK4-cyclinD1 (Homo sapiens, UniProt P11802); experiment: scanMAX kinase assay panel; assay type: binding; design: purchased DiscoverX (scanMAX panel, contract assay); conditions: read-out: control percentage (% control)
Procedure: The activities of the compounds according to the present invention to more diverse enzymes were evaluated. Specifically, it was decided that the enzyme selectivity of Example 74 selected from the compounds of Examples 1 to 129 was measured at the request of DiscoverX, and the experiment was conducted using a scanMAX™ kinase assay panel. At this time, as a drug to treat the enzyme, a solution prepared by dissolving in DMSO at a concentration of 1 μM was used, and the control percentage (% control) was determined by the method of Equation 1 below, and the results were shown in Table 2 below.
In Equation above, the positive control and negative control mean compounds showing control percentages of 0% and 100% as DMSO, respectively.

CDK4-cyclinD1 [2] = target: T2, CDK4-cyclinD1; experiment: CDK4 enzyme inhibitory ability (Reaction Biology); assay type: biochemical; design: purchased Reaction Biology (USA), contract assay; conditions: measured in Reaction Biology (USA)
Procedure: as §1

human GST-HPK1 (1-346) = target: T3, human GST-HPK1 (1-346) (Homo sapiens, UniProt Q92918); experiment: HPK1 enzyme inhibitory ability (ADP-Glo kinase assay); assay type: biochemical; conditions: human GST-HPK1 3 ng, ATP 3 uM, 25° C. 2 hours
T3 construct: purified human GST-HPK1 (1-346, Signalchem) enzyme; purchased Signalchem
T3 sequence (Q92918 1-346): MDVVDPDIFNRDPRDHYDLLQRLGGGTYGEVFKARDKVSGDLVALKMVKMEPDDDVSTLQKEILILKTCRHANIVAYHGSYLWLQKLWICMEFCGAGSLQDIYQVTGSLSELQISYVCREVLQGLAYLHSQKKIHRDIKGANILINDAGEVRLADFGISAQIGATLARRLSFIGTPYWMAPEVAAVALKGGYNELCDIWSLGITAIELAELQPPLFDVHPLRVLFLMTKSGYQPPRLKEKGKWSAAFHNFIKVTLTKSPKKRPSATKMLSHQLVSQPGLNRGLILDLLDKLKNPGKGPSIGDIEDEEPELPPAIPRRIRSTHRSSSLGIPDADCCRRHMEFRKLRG
Procedure, shortened: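 Human GST-HPK1(1-346), 3 ng, reacted with 3 uM ATP and specific substrate in 40 mM Tris-HCl pH 7.4, 20 mM MgCl2, 0.5 mg/mL BSA, 50 uM DTT for 2 h at 25° C. ADP-Glo luminescence read; IC50 (nM) relative to untreated solvent control.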

MV4-11 cells = experiment: AML cell proliferation inhibitory activity (CellTiter-Glo); assay type: cell-based; conditions: Homo sapiens, 72 hours
Procedure, shortened: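 RS4;11 and MV4-11 cells in RPMI-1640 with 10% FBS, seeded 24 h before treatment, then exposed 72 h to 12 three-fold dilutions (0.3 nM–50 μM final). Viability by CellTiter-Glo luminescence relative to solvent control; GI50 from triplicate experiments.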

T2 sequence (P11802 whole entry): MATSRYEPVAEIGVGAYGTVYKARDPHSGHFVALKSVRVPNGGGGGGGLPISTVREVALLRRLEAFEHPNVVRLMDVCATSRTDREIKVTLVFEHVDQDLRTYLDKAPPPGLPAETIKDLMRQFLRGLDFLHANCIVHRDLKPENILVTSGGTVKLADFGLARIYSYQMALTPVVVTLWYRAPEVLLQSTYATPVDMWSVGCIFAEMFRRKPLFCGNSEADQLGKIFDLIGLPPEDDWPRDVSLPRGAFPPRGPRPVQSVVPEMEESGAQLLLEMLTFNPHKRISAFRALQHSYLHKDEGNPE
T2 sequence (P24385 whole entry partner): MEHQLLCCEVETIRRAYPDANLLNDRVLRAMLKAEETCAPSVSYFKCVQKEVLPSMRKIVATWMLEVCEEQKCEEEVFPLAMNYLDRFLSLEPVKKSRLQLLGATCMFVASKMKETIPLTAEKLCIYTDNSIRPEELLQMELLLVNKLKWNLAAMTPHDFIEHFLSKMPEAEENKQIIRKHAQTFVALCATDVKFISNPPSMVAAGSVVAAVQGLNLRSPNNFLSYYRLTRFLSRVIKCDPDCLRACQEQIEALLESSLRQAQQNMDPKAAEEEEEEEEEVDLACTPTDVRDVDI
T1 sequence (Q00534 whole entry): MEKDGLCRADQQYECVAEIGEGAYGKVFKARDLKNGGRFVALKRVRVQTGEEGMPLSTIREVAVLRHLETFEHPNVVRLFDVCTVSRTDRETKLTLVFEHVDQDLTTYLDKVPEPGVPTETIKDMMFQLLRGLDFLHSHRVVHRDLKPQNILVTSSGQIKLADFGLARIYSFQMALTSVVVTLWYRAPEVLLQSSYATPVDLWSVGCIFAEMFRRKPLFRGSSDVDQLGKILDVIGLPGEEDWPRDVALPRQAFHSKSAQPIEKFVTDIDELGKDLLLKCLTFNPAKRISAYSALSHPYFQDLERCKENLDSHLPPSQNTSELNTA
T1 sequence (P24385 whole entry partner): as the sequence (P24385 whole entry partner) above

Question: For `CN1CCN(c2ccc(Nc3nc(N4OCC[C@H]4c4ccccc4)c4cc[nH]c4n3)cc2)CC1` [Example 74, (S)-N-(4-(4-methylpiperazin-1-yl)phenyl)-4-(3-phenylisoxazolidin-2-yl)-7H-pyrrolo[2,3-d]pyrimidin-2-amine], which IC50 (CDK6 cyclin D1) is on record?
Answer: ≥ 250 nM

Question: And the remaining binding at 1 µM (CDK4-cyclinD1 [1])?
Answer: 0.55%

Question: What about the IC50 (CDK4-cyclinD1 [2]) of the same compound?
Answer: ≥ 250 nM

Question: What about the IC50 (human GST-HPK1 (1-346)) of the same compound?
Answer: ≥ 250 nM

Question: What about the GI50 (MV4-11 cells) of the same compound?
Answer: ≥ 250 nM
